EC50 data for 57 compounds are collected here from PubChem BioAssay AID743059 (The Scripps Research Institute Molecular Screening Center, 2013).

Calls of active or inactive are those of the source.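 How the source made its calls: active means EC50 at or below 10 µM; inactive means EC50 above 10 µM.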

For this assay, the target named is Nuclear hormone receptor DAF-12 (Heterodera glycines). The assay is described as follows: hgDAF-12 reporter activation EC50 – cell-based, luminescence, HEK293, dose response (AID 743059).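 Further: agonist potency for compounds that raise hgDAF-12 reporter luminescence.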 As to conditions: HEK293 hgDAF-12 reporter, luciferase luminescence.
Regarding `Cc1cc(-c2nc3cccnc3s2)ccc1NS(=O)(=O)c1cccs1`, the EC50 (commonly the concentration that produces a half-maximal response) was > 67.5 µM (inactive). The value for `COC(=O)C1C(=O)c2c([nH]c(C(=O)OC3CCCCC3)c2C)CC1C` (configuration not stated) was > 67.5 µM (inactive); that for `CC(C)C(N)c1csc(Nc2nncc3ccccc23)n1` (configuration not stated) was > 67.1 µM (inactive); that for `Cc1cccc(/C(N)=N/OC(=O)c2ccco2)c1` was > 67.6 µM (inactive). Under `Cc1cc(O)ccc1Nc1cc(-c2cccc(N(C)C)c2)ncn1` stands > 67.5 µM (inactive); under `Cc1scc(C(=O)N/N=C/c2ccsc2)c1C`, > 67.6 µM (inactive); under `CN(C)/C=N/C(=S)Nc1ccc(Cl)cc1`, > 67.5 µM (inactive).

Take `Cc1ccnc(NC(=O)C2CCN(S(=O)(=O)c3c(C)c(C)cc(C)c3C)CC2)c1`: the EC50 is > 67.6 µM (inactive).

As to `Cc1ccc(Nc2ncccc2C(N)=O)cc1`, the EC50 is > 67.4 µM (inactive). Under `CS(=O)(=O)c1ccc2nc(NC(=O)Nc3ccccc3F)sc2c1` stands > 67.5 µM (inactive). The value for `Cc1ccc(Nc2ncccc2C(N)=O)cc1[N+](=O)[O-]` was > 67.6 µM (inactive); that for `CCc1ccc2oc(-c3cccc(N)c3)nc2c1` was > 67.6 µM (inactive).

Take `CCc1ccc(C2CC(c3ccco3)=NN2S(C)(=O)=O)cc1` (configuration not stated): the EC50 is > 67.5 µM (inactive). Take `CC1CCC(NC(=O)c2cccn2C)CC1` (configuration not stated): the EC50 is > 67.6 µM (inactive). The value for `Cc1cccc(Nc2n[nH]c(C)c2[N+](=O)[O-])c1` was > 67.5 µM (inactive); that for `c1ccc(CCSc2nccn2-c2ccccc2)cc1` was > 67.6 µM (inactive). The value for `Cc1ccc(N/N=C(\C#N)C(=N)N2CCCCCC2)cc1` was > 67.5 µM (inactive); that for `Cc1ccn(-c2cccc(-n3ccc(C)n3)n2)n1` was > 67.6 µM (inactive). Regarding `Cc1cc(C(=O)CSc2cccc[n+]2[O-])c(C)n1-c1ccccc1`, the EC50 was > 67.5 µM (inactive).

Consider `O=C(O)c1cc(-c2cccs2)[nH]n1`, for which the EC50 is > 67.6 µM (inactive). Turning to `Cc1nc2sc(-c3ccccc3)nn2c(=O)c1Br`, the EC50 is > 67.5 µM (inactive). The value for `COc1ccc2[nH]c(C(=O)Nc3cccc(C)n3)cc2c1` was > 67.5 µM (inactive). Under `O=c1[nH]cnc2cc(-c3ccccc3)sc12` stands > 67.5 µM (inactive).

In the case of `O=C(NCCCn1ccnc1)c1cc(-c2cccs2)on1`, the EC50 is 9.01 µM.

Turning to `COc1cccc(/C=C/c2ccc3cccc(O)c3n2)c1`, the EC50 was > 67.5 µM (inactive). In the case of `C(=N\NC1=Nc2cccc3cccc1c23)/c1ccccc1`, the EC50 is > 67.5 µM (inactive).

`C(=C\n1nnc2ccccc21)/c1ccccn1`: the EC50 was > 67.5 µM (inactive).

Consider `O=c1c2ccccc2nnn1CSc1ccccc1F`, for which the EC50 was > 67.5 µM (inactive). The value for `CCSCC(C)(C)n1[nH]c2ccccc2c1=O` was > 67.6 µM (inactive); that for `O=C(Nc1ccccc1O)c1ccc(NS(=O)(=O)c2cccc3cccnc23)cc1` was 3.3 µM. The value for `c1ccc(N=Nc2ccc(C3=NCCO3)cc2)cc1` was > 67.6 µM (inactive). The value for `Fc1ccc(-n2nnc(-c3cccnc3Cl)n2)cc1` was > 67.5 µM (inactive).

For the compound `CN(C)c1ccc2c(=O)c3ccccc3oc2n1`, the EC50 is > 67.6 µM (inactive). Turning to `N#Cc1c(N)nc(N)nc1Nc1ccc(Br)cc1`, the EC50 is > 67.4 µM (inactive). The value for `Cc1ccsc1/C=N/NC(=O)c1sccc1C` was > 67.5 µM (inactive); that for `CCNC(=S)NNC(=O)c1cc(-c2ccc(OCC)cc2)nc2ccccc12` was > 67.5 µM (inactive); that for `O=C(N/N=C/c1cccs1)c1n[nH]c2c1CCC2` was > 67.5 µM (inactive). Consider `Cc1cc(C(=O)NC2=NCCS2)cs1`, for which the EC50 is > 67.5 µM (inactive). The value for `Cc1ccc(SCCSc2ncccn2)cc1` was > 67.5 µM (inactive); that for `CCOC(=O)c1cnc(SCc2ccccc2)nc1N` was > 67.5 µM (inactive); that for `O=c1[nH]c(=O)n(C2CC(O)C(CO)O2)cc1Br` (configuration not stated) was > 67.6 µM (inactive). Under `Cc1ccc(N=Nc2ccc(O)cc2)c(Br)c1` stands > 67.5 µM (inactive). The value for `c1ccc(CSc2ccc(-c3ccccn3)nn2)nc1` was > 67.5 µM (inactive); that for `Cn1c(NCc2c[nH]c3ccccc23)nc2ccccc21` was > 67.5 µM (inactive). `c1ccc(CSc2ccc(-c3cccs3)nn2)cc1`: the EC50 was > 67.5 µM (inactive). The value for `O=c1c2cc(-c3ccccc3)sc2nc2n1CCC2` was > 67.5 µM (inactive).

Turning to `Nc1ccc2c(c1)Cc1cc(N)c(Cl)cc1-2`, the EC50 is > 67.4 µM (inactive). Regarding `Cc1cccc(/C(N)=N/OC(=O)c2cccs2)c1`, the EC50 is > 67.5 µM (inactive). Under `O=C(Nc1ncccc1O)c1ccc(C(=O)c2ccccc2)cc1` stands 4.55 µM. The value for `Cc1ccc(NC(=S)NC(=O)C2CCCC2)c(Br)c1` was > 67.5 µM (inactive). Under `Fc1ccccc1CSc1ncnc2c1ncn2C1CCCCO1` (configuration not stated) stands > 67.6 µM (inactive); under `C/C(=N/NC(=O)c1cc(C(C)C)[nH]n1)c1cccs1`, > 67.6 µM (inactive). With `c1ccc(Nc2nc(-c3ccccc3)ns2)cc1`, the EC50 was > 67.6 µM (inactive). The value for `CCOc1ccc(-c2c(=O)n(O)c3ccccc3[n+]2[O-])cc1` was “inactive”. `CN1C(=O)/C(=C/C=C2\SCCN2C)N(C)C1=S`: the EC50 was > 67.6 µM (inactive). The value for `Clc1ccc(OCCSc2ncccn2)c(Br)c1` was > 67.5 µM (inactive); that for `CCN(CC)S(=O)(=O)c1cc(C(=O)OCC(=O)Nc2ccc(-c3nc4ccc(C)cc4s3)cc2)ccc1F` was > 67.5 µM (inactive).
